Tests used:
Type in all cases: in vivo
[1] = tested on: giant foxtail (Setaria faberi); test: Test G Post-Emergence Protocol; details: Setaria faberi, post-emergence, 312 h, read-out: Foxtail, Giant damage rating; for pest or weed control at 15.625 g/ha: 15.625 g ai/ha, evaluated after 13 days (100=total damage to plant; 0=no damage to plant); for pest or weed control at 62.5 g/ha: 62.5 g ai/ha; for pest or weed control at 62.5 g/ha / pest or weed control at 250 g/ha: evaluated after 13 days, 100=total damage to plant, 0=no damage to plant; for pest or weed control at 250 g/ha: 250 g ai/ha
Method in brief: (§1)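 Eight days post-sowing, plants received a spray of test compound (acetone/water 50:50, 0.5% Tween 20) at 15.625, 62.5 or 250 g/ha. Glasshouse regime thereafter: 24/16 °C, 14 h light, 65% humidity. Assessment after 13 days on a 0–100 damage scale.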

[2] = tested on: velvetleaf (Abutilon theophrasti); test: Test G Post-Emergence Protocol; details: Abutilon theophrasti, post-emergence, 312 h, read-out: Velvetleaf damage rating; for pest or weed control at 15.625 g/ha: 15.625 g ai/ha, evaluated after 13 days (100=total damage to plant; 0=no damage to plant); for pest or weed control at 62.5 g/ha: 62.5 g ai/ha; for pest or weed control at 62.5 g/ha / pest or weed control at 250 g/ha: evaluated after 13 days, 100=total damage to plant, 0=no damage to plant; for pest or weed control at 250 g/ha: 250 g ai/ha
Method in brief: as §1

[3] = tested on: redroot pigweed (Amaranthus retroflexus); test: Test G Post-Emergence Protocol; details: Amaranthus retroflexus, post-emergence, 312 h, read-out: Pigweed, Redroot damage rating; for pest or weed control at 15.625 g/ha: 15.625 g ai/ha, evaluated after 13 days (100=total damage to plant; 0=no damage to plant); for pest or weed control at 62.5 g/ha: 62.5 g ai/ha; for pest or weed control at 62.5 g/ha / pest or weed control at 250 g/ha: evaluated after 13 days, 100=total damage to plant, 0=no damage to plant; for pest or weed control at 250 g/ha: 250 g ai/ha
Method in brief: as §1

corn (Zea mays) [4] = test: Test G Post-Emergence Protocol; details: Zea mays, post-emergence, 312 h, read-out: Corn damage rating; for plant injury at 15.625 g/ha: 15.625 g ai/ha, evaluated after 13 days (100=total damage to plant; 0=no damage to plant); for plant injury at 62.5 g/ha: 62.5 g ai/ha; for plant injury at 62.5 g/ha / plant injury at 250 g/ha: evaluated after 13 days, 100=total damage to plant, 0=no damage to plant; for plant injury at 250 g/ha: 250 g ai/ha
Method in brief: as §1

[5] = tested on: barnyardgrass (Echinochloa crus-galli); test: Test G Post-Emergence Protocol; details: Echinochloa crus-galli, post-emergence, 312 h, read-out: Barnyardgrass damage rating; for pest or weed control at 15.625 g/ha: 15.625 g ai/ha, evaluated after 13 days (100=total damage to plant; 0=no damage to plant); for pest or weed control at 62.5 g/ha: 62.5 g ai/ha; for pest or weed control at 62.5 g/ha / pest or weed control at 250 g/ha: evaluated after 13 days, 100=total damage to plant, 0=no damage to plant; for pest or weed control at 250 g/ha: 250 g ai/ha
Method in brief: as §1

[6] = tested on: ivy-leaved morning glory (Ipomoea hederacea); test: Test G Post-Emergence Protocol; details: Ipomoea, post-emergence, 312 h, read-out: Morningglory, Ivy-leaved damage rating; for pest or weed control at 15.625 g/ha: 15.625 g ai/ha, evaluated after 13 days (100=total damage to plant; 0=no damage to plant); for pest or weed control at 62.5 g/ha: 62.5 g ai/ha; for pest or weed control at 62.5 g/ha / pest or weed control at 250 g/ha: evaluated after 13 days, 100=total damage to plant, 0=no damage to plant; for pest or weed control at 250 g/ha: 250 g ai/ha
Method in brief: as §1

[7] = tested on: giant foxtail (Setaria faberi); test: Test G Pre-Emergence Protocol; details: Setaria faberi, pre-emergence, 312 h, evaluated after 13 days; for pest or weed control at 15.625 g/ha: 15.625 g ai/ha; for pest or weed control at 15.625 g/ha / pest or weed control at 250 g/ha: read-out: Foxtail, Giant damage rating (100=total damage to plant; 0=no damage to plant); for pest or weed control at 62.5 g/ha: 62.5 g ai/ha, 100=total damage to plant, 0=no damage to plant, read-out: Foxtail, Giant damage rating; for pest or weed control at 250 g/ha: 250 g ai/ha
Method in brief: (§2)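 Pots of seeds in standard soil were grown for one day in a glasshouse (24/16 °C day/night, 14 h light, 65% humidity), then sprayed with compound in acetone/water 50:50 with 0.5% Tween 20 at 15.625, 62.5 or 250 g/ha. Damage was scored after 13 days on a 0 (none) to 100 (total) scale.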

[8] = tested on: velvetleaf (Abutilon theophrasti); test: Test G Pre-Emergence Protocol; details: Abutilon theophrasti, pre-emergence, 312 h, evaluated after 13 days; for pest or weed control at 15.625 g/ha: 15.625 g ai/ha; for pest or weed control at 15.625 g/ha / pest or weed control at 250 g/ha: read-out: Velvetleaf damage rating (100=total damage to plant; 0=no damage to plant); for pest or weed control at 62.5 g/ha: 62.5 g ai/ha, 100=total damage to plant, 0=no damage to plant, read-out: Velvetleaf damage rating; for pest or weed control at 250 g/ha: 250 g ai/ha
Method in brief: as §2

[9] = tested on: redroot pigweed (Amaranthus retroflexus); test: Test G Pre-Emergence Protocol; details: Amaranthus retroflexus, pre-emergence, 312 h, evaluated after 13 days; for pest or weed control at 15.625 g/ha: 15.625 g ai/ha; for pest or weed control at 15.625 g/ha / pest or weed control at 250 g/ha: read-out: Pigweed, Redroot damage rating (100=total damage to plant; 0=no damage to plant); for pest or weed control at 62.5 g/ha: 62.5 g ai/ha, 100=total damage to plant, 0=no damage to plant, read-out: Pigweed, Redroot damage rating; for pest or weed control at 250 g/ha: 250 g ai/ha
Method in brief: as §2

corn (Zea mays) [10] = test: Test G Pre-Emergence Protocol; details: Zea mays, pre-emergence, 312 h, evaluated after 13 days; for plant injury at 15.625 g/ha: 15.625 g ai/ha; for plant injury at 15.625 g/ha / plant injury at 250 g/ha: read-out: Corn damage rating (100=total damage to plant; 0=no damage to plant); for plant injury at 62.5 g/ha: 62.5 g ai/ha, 100=total damage to plant, 0=no damage to plant, read-out: Corn damage rating; for plant injury at 250 g/ha: 250 g ai/ha
Method in brief: as §2

[11] = tested on: barnyardgrass (Echinochloa crus-galli); test: Test G Pre-Emergence Protocol; details: Echinochloa crus-galli, pre-emergence, 312 h, evaluated after 13 days; for pest or weed control at 15.625 g/ha: 15.625 g ai/ha; for pest or weed control at 15.625 g/ha / pest or weed control at 250 g/ha: read-out: Barnyardgrass damage rating (100=total damage to plant; 0=no damage to plant); for pest or weed control at 62.5 g/ha: 62.5 g ai/ha, 100=total damage to plant, 0=no damage to plant, read-out: Barnyardgrass damage rating; for pest or weed control at 250 g/ha: 250 g ai/ha
Method in brief: as §2

[12] = tested on: ivy-leaved morning glory (Ipomoea hederacea); test: Test G Pre-Emergence Protocol; details: Ipomoea, pre-emergence, 312 h, evaluated after 13 days; for pest or weed control at 15.625 g/ha: 15.625 g ai/ha; for pest or weed control at 15.625 g/ha / pest or weed control at 250 g/ha: read-out: Morningglory, Ivy-leaved damage rating (100=total damage to plant; 0=no damage to plant); for pest or weed control at 62.5 g/ha: 62.5 g ai/ha, 100=total damage to plant, 0=no damage to plant, read-out: Morningglory, Ivy-leaved damage rating; for pest or weed control at 250 g/ha: 250 g ai/ha
Method in brief: as §2

SMILES	pest or weed control at 15.625 g/ha [1] [%]	pest or weed control at 62.5 g/ha [1] [%]	pest or weed control at 250 g/ha [1] [%]	pest or weed control at 15.625 g/ha [2] [%]	pest or weed control at 62.5 g/ha [2] [%]	pest or weed control at 250 g/ha [2] [%]	pest or weed control at 15.625 g/ha [3] [%]	pest or weed control at 62.5 g/ha [3] [%]	pest or weed control at 250 g/ha [3] [%]	plant injury at 15.625 g/ha (corn (Zea mays) [4]) [%]	plant injury at 62.5 g/ha (corn (Zea mays) [4]) [%]	plant injury at 250 g/ha (corn (Zea mays) [4]) [%]	pest or weed control at 15.625 g/ha [5] [%]	pest or weed control at 62.5 g/ha [5] [%]	pest or weed control at 250 g/ha [5] [%]	pest or weed control at 15.625 g/ha [6] [%]	pest or weed control at 62.5 g/ha [6] [%]	pest or weed control at 250 g/ha [6] [%]	pest or weed control at 15.625 g/ha [7] [%]	pest or weed control at 62.5 g/ha [7] [%]	other results
COc1cc(C2CN(C)C(=O)C2C(=O)Nc2cccc(F)c2F)cc(Cl)c1F (stereo not drawn) [Compound 1705]	70	70	80	0	0	10	0	0	30	10	0	70	20	30	80	0	20	50	50	70	pest or weed control at 250 g/ha [7]: 80%; pest or weed control at 15.625 g/ha [8]: 0%; pest or weed control at 62.5 g/ha [8]: 0%; pest or weed control at 250 g/ha [8]: 20%; pest or weed control at 15.625 g/ha [9]: 0%; pest or weed control at 62.5 g/ha [9]: 0%; pest or weed control at 250 g/ha [9]: 30%; plant injury at 15.625 g/ha (corn (Zea mays) [10]): 0%; plant injury at 62.5 g/ha (corn (Zea mays) [10]): 10%; plant injury at 250 g/ha (corn (Zea mays) [10]): 70%; pest or weed control at 15.625 g/ha [11]: 20%; pest or weed control at 62.5 g/ha [11]: 60%; pest or weed control at 250 g/ha [11]: 70%; pest or weed control at 15.625 g/ha [12]: 0%; pest or weed control at 62.5 g/ha [12]: 0%; pest or weed control at 250 g/ha [12]: 10%
CCOc1ccc(C2CN(C)C(=O)C2C(=O)Nc2cccc(F)c2F)cc1OCC (stereo not drawn) [Compound 1716]	40	70	80	0	0	0	0	0	0	0	10	60	0	60	80	0	0	10	30	90	pest or weed control at 250 g/ha [7]: 90%; pest or weed control at 15.625 g/ha [8]: 0%; pest or weed control at 62.5 g/ha [8]: 10%; pest or weed control at 250 g/ha [8]: 10%; pest or weed control at 15.625 g/ha [9]: 0%; pest or weed control at 62.5 g/ha [9]: 10%; pest or weed control at 250 g/ha [9]: 10%; plant injury at 15.625 g/ha (corn (Zea mays) [10]): 0%; plant injury at 62.5 g/ha (corn (Zea mays) [10]): 0%; plant injury at 250 g/ha (corn (Zea mays) [10]): 60%; pest or weed control at 15.625 g/ha [11]: 0%; pest or weed control at 62.5 g/ha [11]: 80%; pest or weed control at 250 g/ha [11]: 90%; pest or weed control at 15.625 g/ha [12]: 0%; pest or weed control at 62.5 g/ha [12]: 0%; pest or weed control at 250 g/ha [12]: 0%
CN1CC(c2ccc(F)c(OCC(F)(F)F)c2)C(C(=O)Nc2cccc(F)c2F)C1=O (stereo not drawn) [Compound 1718]	70	80	80	20	40	60	30	40	70	30	50	80	50	70	80	10	60	70	60	80	pest or weed control at 250 g/ha [7]: 90%; pest or weed control at 15.625 g/ha [8]: 0%; pest or weed control at 62.5 g/ha [8]: 0%; pest or weed control at 250 g/ha [8]: 50%; pest or weed control at 15.625 g/ha [9]: 0%; pest or weed control at 62.5 g/ha [9]: 0%; pest or weed control at 250 g/ha [9]: 60%; plant injury at 15.625 g/ha (corn (Zea mays) [10]): 0%; plant injury at 62.5 g/ha (corn (Zea mays) [10]): 50%; plant injury at 250 g/ha (corn (Zea mays) [10]): 80%; pest or weed control at 15.625 g/ha [11]: 60%; pest or weed control at 62.5 g/ha [11]: 70%; pest or weed control at 250 g/ha [11]: 90%; pest or weed control at 15.625 g/ha [12]: 0%; pest or weed control at 62.5 g/ha [12]: 0%; pest or weed control at 250 g/ha [12]: 10%
